Measurements reported in the NIST ThermoML archive (doi:10.1016/j.jct.2014.01.012).
± gives the expanded uncertainty stated by the source.

Test: xn = mol fraction of the nth substance listed
Details: 101 kPa, Liquid; for speed of sound: Sing-around technique in a fixed-path interferometer; for mass density: Vibrating tube method

CCCCCCn1cc[n+](C)c1.F[P-](F)(F)(F)(F)F [1-hexyl-3-methylimidazolium hexafluorophosphate] + CCCCOC(C)=O
Details	mass density [kg/m3]	speed of sound [m/s]
293.15 K, x1 = 0.0956	951.75 ± 0.29	1232 ± 1.5
293.15 K, x1 = 0.1919	1012.58 ± 0.41	1254.6 ± 1.6
293.15 K, x1 = 0.273	1056.82 ± 0.58	1279.1 ± 1.8
293.15 K, x1 = 0.3698	1103.12 ± 0.85	1306.9 ± 1.9
293.15 K, x1 = 0.4639	1141.87 ± 1.2	1329.4 ± 2.1
293.15 K, x1 = 0.5701	1179.57 ± 1.6	1354.2 ± 2.3
293.15 K, x1 = 0.6787	1213.07 ± 2.1	1375.9 ± 2.5
293.15 K, x1 = 0.7746	1239.19 ± 2.6	1395 ± 2.8
293.15 K, x1 = 0.8707	1262.73 ± 3.2	1412 ± 3
293.15 K, x1 = 0.9354	1277.66 ± 3.7	1425 ± 3.1
293.15 K, x1 = 1	1291.38 ± 4.2	1436.9 ± 3.2
298.15 K, x1 = 0.0956	947.32 ± 0.29	1211.1 ± 1.5
298.15 K, x1 = 0.1919	1008.36 ± 0.4	1234 ± 1.6
298.15 K, x1 = 0.273	1052.6 ± 0.58	1258.9 ± 1.8
298.15 K, x1 = 0.3698	1098.76 ± 0.84	1286.7 ± 1.9
298.15 K, x1 = 0.4639	1137.51 ± 1.2	1309.5 ± 2.1
298.15 K, x1 = 0.5701	1175.41 ± 1.6	1334.8 ± 2.3
298.15 K, x1 = 0.6787	1209.24 ± 2.1	1357.2 ± 2.5
298.15 K, x1 = 0.7746	1235.56 ± 2.6	1377.6 ± 2.8
298.15 K, x1 = 0.8707	1259.27 ± 3.2	1395.9 ± 3
298.15 K, x1 = 0.9354	1273.93 ± 3.7	1409.2 ± 3.1
298.15 K, x1 = 1	1287.34 ± 4.1	1423.5 ± 3.2
303.15 K, x1 = 0.0956	942.923 ± 0.3	1190.1 ± 1.5
303.15 K, x1 = 0.1919	1004.08 ± 0.4	1212.6 ± 1.6
303.15 K, x1 = 0.273	1048.36 ± 0.57	1237.4 ± 1.8
303.15 K, x1 = 0.3698	1094.3 ± 0.83	1265.2 ± 1.9
303.15 K, x1 = 0.4639	1133.2 ± 1.1	1289.9 ± 2.1
303.15 K, x1 = 0.5701	1171.25 ± 1.6	1317.5 ± 2.3
303.15 K, x1 = 0.6787	1205.24 ± 2.1	1342.6 ± 2.5
303.15 K, x1 = 0.7746	1231.69 ± 2.6	1360.1 ± 2.8
303.15 K, x1 = 0.8707	1255.4 ± 3.2	1382.6 ± 3
303.15 K, x1 = 0.9354	1270.13 ± 3.7	1397.1 ± 3.1
303.15 K, x1 = 1	1283.29 ± 4.1	1410.6 ± 3.2
308.15 K, x1 = 0.0956	938.4 ± 0.3	1170.2 ± 1.5
308.15 K, x1 = 0.1919	999.626 ± 0.39	1195.2 ± 1.6
308.15 K, x1 = 0.273	1043.86 ± 0.56	1223.8 ± 1.8
308.15 K, x1 = 0.3698	1089.96 ± 0.83	1252.4 ± 1.9
308.15 K, x1 = 0.4639	1128.94 ± 1.1	1282.6 ± 2.1
308.15 K, x1 = 0.5701	1167.43 ± 1.6	1309.4 ± 2.3
308.15 K, x1 = 0.6787	1201.36 ± 2.1	1335.2 ± 2.5
308.15 K, x1 = 0.7746	1227.89 ± 2.6	1354.9 ± 2.8
308.15 K, x1 = 0.8707	1251.38 ± 3.2	1369.7 ± 3
308.15 K, x1 = 0.9354	1265.98 ± 3.6	1384.4 ± 3.1
308.15 K, x1 = 1	1279.4 ± 4.1	1398.2 ± 3.2
313.15 K, x1 = 0.0956	933.877 ± 0.3	1150.1 ± 1.5
313.15 K, x1 = 0.1919	995.525 ± 0.39	1177 ± 1.6
313.15 K, x1 = 0.273	1039.84 ± 0.56	1206.8 ± 1.8
313.15 K, x1 = 0.3698	1085.95 ± 0.82	1236.5 ± 1.9
313.15 K, x1 = 0.4639	1124.72 ± 1.1	1267.5 ± 2.1
313.15 K, x1 = 0.5701	1163.39 ± 1.6	1295.4 ± 2.3
313.15 K, x1 = 0.6787	1197.76 ± 2.1	1321.8 ± 2.5
313.15 K, x1 = 0.7746	1224.59 ± 2.6	1341.9 ± 2.8
313.15 K, x1 = 0.8707	1248.25 ± 3.2	1356.9 ± 3
313.15 K, x1 = 0.9354	1262.68 ± 3.6	1372 ± 3.1
313.15 K, x1 = 1	1275.48 ± 4.1	1386 ± 3.2
318.15 K, x1 = 0.0956	929.385 ± 0.3	1130.3 ± 1.5
318.15 K, x1 = 0.1919	991.164 ± 0.39	1158.8 ± 1.6
318.15 K, x1 = 0.273	1035.44 ± 0.55	1189.8 ± 1.8
318.15 K, x1 = 0.3698	1081.67 ± 0.81	1220.7 ± 1.9
318.15 K, x1 = 0.4639	1120.61 ± 1.1	1252.5 ± 2.1
318.15 K, x1 = 0.5701	1159.18 ± 1.5	1280.7 ± 2.3
318.15 K, x1 = 0.6787	1193.95 ± 2	1308.5 ± 2.5
318.15 K, x1 = 0.7746	1221 ± 2.6	1329 ± 2.8
318.15 K, x1 = 0.8707	1244.79 ± 3.2	1344.4 ± 3
318.15 K, x1 = 0.9354	1258.89 ± 3.6	1359.8 ± 3.1
318.15 K, x1 = 1	1271.56 ± 4	1374.2 ± 3.2
323.15 K, x1 = 0.0956	924.824 ± 0.3	1110.4 ± 1.5
323.15 K, x1 = 0.1919	986.823 ± 0.39	1140.8 ± 1.6
323.15 K, x1 = 0.273	1031.16 ± 0.55	1172.9 ± 1.8
323.15 K, x1 = 0.3698	1077.6 ± 0.81	1205.1 ± 1.9
323.15 K, x1 = 0.4639	1116.43 ± 1.1	1237.1 ± 2.1
323.15 K, x1 = 0.5701	1155.28 ± 1.5	1267 ± 2.3
323.15 K, x1 = 0.6787	1190.27 ± 2	1295.7 ± 2.5
323.15 K, x1 = 0.7746	1217.39 ± 2.5	1316.4 ± 2.7
323.15 K, x1 = 0.8707	1241.1 ± 3.1	1332.1 ± 3
323.15 K, x1 = 0.9354	1255.1 ± 3.6	1347.8 ± 3.1
323.15 K, x1 = 1	1267.63 ± 4	1362.5 ± 3.2
